Where a SMILES comes first, the peptide text is derived from it.
Experiments:
[1] = Peptide hydrogel formation, vial-inverting method; assay type: physicochemical; design: key to EXP / GELATION: 0: no hydrogel; 1: hydrogel; details: for State: ultrasonication, standing 48 h; for State / GELATION / hydrogel formation (in words): vial-inverting method; for Concentration: concentration at which the state was recorded: lowest of 30, 60, 90, 120 mM that gave a gel, 120 mM for non-gelating peptides; for GELATION: 1 = hydrogel, 0 = no hydrogel; for hydrogel formation (in words): representative hydrogels pH between 7.0 to 7.5
In short: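 Tetrapeptides dissolved in ultrapure water at 30 mM, pH brought to 6.5–8.5 with 1 N NaOH stepwise with brief ultrasonication, then left 48 h. Gel defined as self-supporting and non-flowing on vial inversion; non-gelling peptides retested at 60, 90 and 120 mM.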

C57BL/6 mice = assay type: in vivo, C57BL/6 J mice; details: serum day 21
[2] = Transmission electron microscope (negative staining) of peptide assemblies; details: for Morphology: TEM, negative staining with uranyl acetate, 120 kV
Procedure: We used the negative staining technique to observe the morphologies formed by peptides. A micropipette was used to load 10 μL of sample solution to a carbon-coated copper grid, and we used a piece of filter paper to remove the excess solution. After rinsing the grid with the deionized water, we used uranyl acetate to stain the sample for 1 minute and then rinsed the grid with deionized water again.

[3] = Optical images of aqueous peptide solutions at four concentrations; assay type: physicochemical; details: pH = 7.5
Procedure: [7. What are the pH values of the hydrogels formed? […]
the captions of proper figures.]
We thank the reviewer for the comment. […]
the information of pH values of tetrapeptide hydrogels/solutions in the captions of Fig. 3a and d. […]
Insets: […]
optical images of corresponding solution/suspension (pH=7.5). […]
[8. Is it surprising that both QQQQ and EEEE form suspension at 120 mM? Any explanation from either ML perspective or thermodynamic prospective?]
We thank the reviewer for the comment. From the ML or simulation perspective, both QQQQ and […]
hydrophilicity and lack of sufficient directional hydrogen bonds captured in simulation and prediction. However, the formation of suspension in real experiments indicate the formation of aggregates, and we attribute this to the thermodynamic factor of concentration.
Actually, we also found this phenomenon on RRRR (also contains four charged amino acids), and […]
We compared the optical images of QQQQ and EEEE at four concentrations (30, 60, 90, and 120 […]
transparency decreased (60, 90, and 120 mM) due to the formation of aggregates. As for EEEE, at […]
suspension. We tend to think that as the concentration of charged tetrapeptides increases, the hydrogen bond between peptide molecules and water is strengthened, resulting in the formation of […]
aggregates at high concentrations. […]
description in Lines 214-216 of this main text.
Fig. R1 The optical images of QQQQ and EEEE aqueous solutions at four concentrations (30, 60, […]
with different sizes in an aqueous solution, qualitatively consistent with the morphologies obtained in MD simulations except for RRRR (Fig. 3d, right column), showing different levels of aggregation. Taking the TEM result of RRRR together, we attributed this to the thermodynamic factor of concentration. Finally, we presented a summary of the assembled morphologies of all […]
tetrapeptides tended to form fibers, sheets, or hybrid morphology (70%) in an aqueous solution. […]
[…]
(1 picture or pasted object on this page, not shown here)

[4] = 60 mM peptide in ultrapure water, pH 6.5-8.5 (1 N NaOH), no gel at 30 mM
[5] = 120 mM peptide (highest tested) in ultrapure water, pH 6.5-8.5 (1 N NaOH), precipitate, sol, suspension = no gel

| Compound | State [1, 4] | Concentration [1] [µM] | GELATION ([1]; peptide concentration 60 mM) | Morphology ([2]; line of the table gives 60 mM) | State [1, 5] | GELATION ([1]; peptide concentration 120 mM) | Morphology ([2]; line of the table gives 120 mM) | further results |
| --- | --- | --- | --- | --- | --- | --- | --- | --- |
| C[C@H](NC(=O)[C@@H](N)Cc1ccc(O)cc1)C(=O)N[C@@H](Cc1c[nH]c2ccccc12)C(=O)N[C@@H](Cc1ccccc1)C(=O)O [YAWF] (H-YAWF-OH) | gel | 60000 | 1 | fibre |  |  |  | hydrogel formation (in words) [1]: can form hydrogels; increase of RBD-specific IgG2b response compared with the commercial aluminum adjuvant group (C57BL/6 mice; C57BL/6 mice): around 9.7 fold; production of RBD-specific IgG1 (in words) (C57BL/6 mice; C57BL/6 mice, similar to the aluminum group): significantly enhanced; RBD-specific IgG2c titers (in words) (C57BL/6 mice; C57BL/6 mice, surpassing aluminum group or control group): high IgG2c titers; enhancement of the generation of IgG compared with the RBD group (C57BL/6 mice; […], C57BL/6 mice): 41.6 fold; endpoint titre of RBD-specific IgG in serum (C57BL/6 mice; mean of n = 6 mice, s.c. immunization day 0, 7, 14 with 15 μg RBD alone, with 12.5 μL aluminum adjuvant or 60 mM YAWF hydrogel, […]): 58615.2; morphology by TEM (in words) ([2]; aqueous solution or hydrogel, negative staining): nanofibrous network |
| N[C@@H](CCC(=O)O)C(=O)N[C@@H](CCC(=O)O)C(=O)N[C@@H](CCC(=O)O)C(=O)N[C@@H](CCC(=O)O)C(=O)O [EEEE] (H-EEEE-OH) |  | 120000 |  |  | suspension | 0 | sheet | appearance of aqueous solution (optical image) ([3]; 30 mM): uniform and clear solutions; appearance of aqueous solution (optical image) ([3]; 60 mM): uniform and clear solutions; appearance of aqueous solution (optical image) ([3]; 90 mM): uniform and clear solutions; appearance of aqueous solution (optical image) ([3]; 120 mM): opaque suspension |
| NC(=O)CC[C@H](NC(=O)[C@H](CCC(N)=O)NC(=O)[C@H](CCC(N)=O)NC(=O)[C@@H](N)CCC(N)=O)C(=O)O [QQQQ] (H-QQQQ-OH) |  | 120000 |  |  | suspension | 0 | sheet | appearance of aqueous solution (optical image) ([3]; 30 mM): clear solution; appearance of aqueous solution (optical image) ([3]; 60 mM): solution transparency decreased; appearance of aqueous solution (optical image) ([3]; 90 mM): solution transparency decreased; appearance of aqueous solution (optical image) ([3]; 120 mM): solution transparency decreased |
| CC[C@H](C)[C@H](NC(=O)[C@@H](NC(=O)[C@@H](NC(=O)[C@@H](N)Cc1c[nH]c2ccccc12)C(C)C)[C@@H](C)CC)C(=O)O [WVII] (H-WVII-OH) | gel | 60000 | 1 | fibre |  |  |  | hydrogel formation (in words) [1]: can form hydrogel |
| C[C@H](NC(=O)[C@H](Cc1ccc(O)cc1)NC(=O)[C@@H](N)Cc1ccccc1)C(=O)N[C@@H](Cc1ccc(O)cc1)C(=O)O [FYAY] (H-FYAY-OH) |  | 120000 |  |  | gel | 1 | sheet |  |
| CC[C@H](C)[C@H](N)C(=O)N[C@@H](CCSC)C(=O)N[C@H](C(=O)N[C@H](C(=O)O)C(C)C)C(C)C [IMVV] (H-IMVV-OH) |  | 30000 |  |  |  |  |  | State ([1]; 30 mM peptide in ultrapure water, pH adjusted to 6.5-8.5 with 1 N NaOH, concentration raised 30/60/90/120 mM until gelation): gel; GELATION ([1]; peptide concentration 30 mM): 1; hydrogel formation (in words) [1]: can form hydrogel; Morphology ([2]; line of the table gives 30 mM): aggregates |
| CC[C@H](C)[C@H](N)C(=O)N[C@@H](Cc1c[nH]cn1)C(=O)N[C@@H](Cc1ccccc1)C(=O)N[C@H](C(=O)O)C(C)C [IHFV] (H-IHFV-OH) |  | 120000 |  |  | sol | 0 | sphere |  |
| CSCC[C@H](N)C(=O)N[C@H](C(=O)N[C@@H](Cc1ccccc1)C(=O)N1CCC[C@H]1C(=O)O)C(C)C [MVFP] (H-MVFP-OH) | gel | 60000 | 1 | fibre |  |  |  |  |
| NCCCC[C@H](NC(=O)[C@@H](N)Cc1ccccc1)C(=O)N[C@@H](Cc1ccccc1)C(=O)N[C@@H](Cc1c[nH]c2ccccc12)C(=O)O [FKFW] (H-FKFW-OH) | gel | 60000 | 1 | fibre |  |  |  |  |
| CC(C)C[C@H](NC(=O)[C@H](C)NC(=O)[C@@H](N)CC(C)C)C(=O)N[C@@H](CCCNC(=N)N)C(=O)O [LALR] (H-LALR-OH) |  | 120000 |  |  | suspension | 0 | aggregates |  |
| CC[C@H](C)[C@H](N)C(=O)N[C@@H](Cc1c[nH]c2ccccc12)C(=O)N1CCC[C@H]1C(=O)N[C@@H](Cc1c[nH]c2ccccc12)C(=O)O [IWPW] (H-IWPW-OH) |  | 120000 |  |  | precipitate | 0 | aggregates |  |
